Source: ChEMBL document CHEMBL2434948, “Discovery, synthesis, and characterization of an orally bioavailable, brain penetrant inhibitor of mixed lineage kinase 3” (J Med Chem, 2013)
The source made the active and inactive calls. No cut-off for these calls is given here.

Columns and labels:
[1] = molecular target: Non-receptor tyrosine-protein kinase TYK2 (Homo sapiens) (UniProt P29597); assay: Inhibition of human wild type TYK2 at 1 uM by qPCR analysis relative to control
[2] = molecular target: RAC-beta serine/threonine-protein kinase (Homo sapiens) (UniProt P31751); assay: Inhibition of human wild type AKT2 at 1 uM by qPCR analysis
[3] = molecular target: Inhibitor of nuclear factor kappa-B kinase subunit beta (Homo sapiens) (UniProt O14920); assay: Inhibition of human wild type IKKbeta at 1 uM by qPCR analysis relative to control
[4] = molecular target: T1, Tyrosine-protein kinase ABL1 (Homo sapiens, UniProt P00519); assay: Inhibition of human ABL1 mutant at 1 uM by qPCR analysis
[5] = in vivo; conditions: C57BL/6, mouse, po, 10 mg/kg
[6] = molecular target: RAC-alpha serine/threonine-protein kinase (Homo sapiens) (UniProt P31749); assay: Inhibition of human wild type AKT1 at 1 uM by qPCR analysis
[7] = molecular target: SRSF protein kinase 2 (Homo sapiens) (UniProt P78362); assay: Inhibition of human wild type SRPK2 at 1 uM by qPCR analysis relative to control
[8] = molecular target: Platelet-derived growth factor receptor beta (Homo sapiens) (UniProt P09619); assay: Inhibition of human wild type PDGFRB at 1 uM by qPCR analysis relative to control
[9] = molecular target: High affinity nerve growth factor receptor (Homo sapiens, UniProt P04629)
Description: Inhibition of wild type human TRKA by high throughput ATP-[33P] radiolabeled assay

[10] = molecular target: Tyrosine-protein kinase Lck (Homo sapiens, UniProt P06239)
Description: Inhibition of wild type human LCK by high throughput ATP-[33P] radiolabeled assay

[11] = molecular target: Dual specificity protein kinase CLK4 (Homo sapiens) (UniProt Q9HAZ1); assay: Inhibition of human wild type CLK4 at 1 uM by qPCR analysis relative to control
[12] = molecular target: T1, Tyrosine-protein kinase ABL1; assay: Inhibition of human wild type ABL1 at 1 uM by qPCR analysis relative to control
[13] = molecular target: Cyclin-dependent kinase 1 (Homo sapiens, UniProt P06493)
Description: Inhibition of wild type human CDK1 by high throughput ATP-[33P] radiolabeled assay

[14] = molecular target: Aurora kinase A (Homo sapiens, UniProt O14965)
Description: Inhibition of wild type human Aurora kinase A by high throughput ATP-[33P] radiolabeled assay

[15] = molecular target: Cytochrome P450 2C9 (Homo sapiens, UniProt P11712)
Description: Inhibition of CYP2C9 in human liver microsomes assessed as inhibition of midazolam metabolism by HPLC/MS analysis

[16] = molecular target: Cytochrome P450 2D6 (Homo sapiens, UniProt P10635)
Description: Inhibition of CYP2D6 in human liver microsomes assessed as inhibition of diclofenac metabolism by HPLC/MS analysis

[17] = molecular target: Ribosomal protein S6 kinase alpha-1 (Homo sapiens) (UniProt Q15418); assay: Inhibition of human wild type RSK1 at 1 uM by qPCR analysis
[18] = molecular target: T2, Leucine-rich repeat serine/threonine-protein kinase 2 (Homo sapiens, UniProt Q5S007); assay: Inhibition of human wild type LRRK2 at 1 uM by qPCR analysis relative to control
[19] = molecular target: T3, Receptor-type tyrosine-protein kinase FLT3 (Homo sapiens, UniProt P36888); assay: cell-based
T3 sequence (P36888 whole entry): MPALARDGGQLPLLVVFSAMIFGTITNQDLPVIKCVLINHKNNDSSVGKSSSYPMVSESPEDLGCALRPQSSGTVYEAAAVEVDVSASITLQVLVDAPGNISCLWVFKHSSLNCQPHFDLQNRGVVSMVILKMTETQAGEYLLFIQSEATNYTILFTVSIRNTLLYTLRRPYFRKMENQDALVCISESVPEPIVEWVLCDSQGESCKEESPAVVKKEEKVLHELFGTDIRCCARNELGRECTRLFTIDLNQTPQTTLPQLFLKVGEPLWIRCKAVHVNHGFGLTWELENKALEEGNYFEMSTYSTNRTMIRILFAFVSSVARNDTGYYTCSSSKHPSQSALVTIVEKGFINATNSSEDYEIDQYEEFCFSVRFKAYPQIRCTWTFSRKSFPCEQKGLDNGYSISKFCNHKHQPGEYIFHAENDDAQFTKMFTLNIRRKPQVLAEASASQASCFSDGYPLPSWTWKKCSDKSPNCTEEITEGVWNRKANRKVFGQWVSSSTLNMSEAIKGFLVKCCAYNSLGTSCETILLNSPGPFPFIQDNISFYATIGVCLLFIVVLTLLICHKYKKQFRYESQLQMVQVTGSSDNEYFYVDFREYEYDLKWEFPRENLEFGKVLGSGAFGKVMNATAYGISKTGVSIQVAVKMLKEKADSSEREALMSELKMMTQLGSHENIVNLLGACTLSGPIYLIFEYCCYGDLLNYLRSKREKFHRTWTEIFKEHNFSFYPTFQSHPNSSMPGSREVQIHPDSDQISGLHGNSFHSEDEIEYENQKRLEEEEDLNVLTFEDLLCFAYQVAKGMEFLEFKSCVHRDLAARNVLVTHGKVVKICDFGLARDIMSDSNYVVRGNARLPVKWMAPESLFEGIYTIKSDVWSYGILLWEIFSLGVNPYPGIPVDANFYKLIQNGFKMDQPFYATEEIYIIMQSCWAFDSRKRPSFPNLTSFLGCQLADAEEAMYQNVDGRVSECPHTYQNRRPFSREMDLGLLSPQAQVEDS
Description: Inhibition of FLT3-L-stimulated wild type full length human FLT3 autophosphorylation expressed in MEF preincubated for 90 mins followed by FLT3-L stimulation measured after 5 mins by ELISA

[20] = molecular target: Tyrosine-protein kinase receptor UFO (Homo sapiens) (UniProt P30530); assay: Inhibition of human wild type AXL at 1 uM by qPCR analysis relative to control
[21] = molecular target: Mitogen-activated protein kinase kinase kinase 11 (Homo sapiens, UniProt Q16584); conditions: 300 nM
[22] = molecular target: Mitogen-activated protein kinase 11 (Homo sapiens) (UniProt Q15759); assay: Inhibition of human wild type p38b at 1 uM by qPCR analysis
[23] = molecular target: Dual specificity protein kinase CLK1 (Homo sapiens) (UniProt P49759); assay: Inhibition of human wild type CLK1 at 1 uM by qPCR analysis relative to control
[24] = molecular target: Mitogen-activated protein kinase kinase kinase 11 (Mus musculus, UniProt Q80XI6)
[25] = molecular target: Receptor-type tyrosine-protein kinase FLT3 (Homo sapiens) (UniProt P36888); assay: Inhibition of human wild type FLT3 at 1 uM by qPCR analysis relative to control
[26] = molecular target: T2, Leucine-rich repeat serine/threonine-protein kinase 2
Description: Inhibition of human wild type LRRK2 by qPCR analysis

[27] = molecular target: Mitogen-activated protein kinase kinase kinase 2 (Homo sapiens, UniProt Q9Y2U5)
Description: Inhibition of wild type human MEKK2 by high throughput ATP-[33P] radiolabeled assay

[28] = molecular target: Insulin-like growth factor 1 receptor (Homo sapiens, UniProt P08069)
Description: Inhibition of wild type human IGF1R by high throughput ATP-[33P] radiolabeled assay

[29] = molecular target: Serine/threonine-protein kinase MARK2 (Homo sapiens) (UniProt Q7KZI7); assay: Inhibition of human wild type MARK2 at 1 uM by qPCR analysis relative to control

T2 sequence (Q5S007 whole entry): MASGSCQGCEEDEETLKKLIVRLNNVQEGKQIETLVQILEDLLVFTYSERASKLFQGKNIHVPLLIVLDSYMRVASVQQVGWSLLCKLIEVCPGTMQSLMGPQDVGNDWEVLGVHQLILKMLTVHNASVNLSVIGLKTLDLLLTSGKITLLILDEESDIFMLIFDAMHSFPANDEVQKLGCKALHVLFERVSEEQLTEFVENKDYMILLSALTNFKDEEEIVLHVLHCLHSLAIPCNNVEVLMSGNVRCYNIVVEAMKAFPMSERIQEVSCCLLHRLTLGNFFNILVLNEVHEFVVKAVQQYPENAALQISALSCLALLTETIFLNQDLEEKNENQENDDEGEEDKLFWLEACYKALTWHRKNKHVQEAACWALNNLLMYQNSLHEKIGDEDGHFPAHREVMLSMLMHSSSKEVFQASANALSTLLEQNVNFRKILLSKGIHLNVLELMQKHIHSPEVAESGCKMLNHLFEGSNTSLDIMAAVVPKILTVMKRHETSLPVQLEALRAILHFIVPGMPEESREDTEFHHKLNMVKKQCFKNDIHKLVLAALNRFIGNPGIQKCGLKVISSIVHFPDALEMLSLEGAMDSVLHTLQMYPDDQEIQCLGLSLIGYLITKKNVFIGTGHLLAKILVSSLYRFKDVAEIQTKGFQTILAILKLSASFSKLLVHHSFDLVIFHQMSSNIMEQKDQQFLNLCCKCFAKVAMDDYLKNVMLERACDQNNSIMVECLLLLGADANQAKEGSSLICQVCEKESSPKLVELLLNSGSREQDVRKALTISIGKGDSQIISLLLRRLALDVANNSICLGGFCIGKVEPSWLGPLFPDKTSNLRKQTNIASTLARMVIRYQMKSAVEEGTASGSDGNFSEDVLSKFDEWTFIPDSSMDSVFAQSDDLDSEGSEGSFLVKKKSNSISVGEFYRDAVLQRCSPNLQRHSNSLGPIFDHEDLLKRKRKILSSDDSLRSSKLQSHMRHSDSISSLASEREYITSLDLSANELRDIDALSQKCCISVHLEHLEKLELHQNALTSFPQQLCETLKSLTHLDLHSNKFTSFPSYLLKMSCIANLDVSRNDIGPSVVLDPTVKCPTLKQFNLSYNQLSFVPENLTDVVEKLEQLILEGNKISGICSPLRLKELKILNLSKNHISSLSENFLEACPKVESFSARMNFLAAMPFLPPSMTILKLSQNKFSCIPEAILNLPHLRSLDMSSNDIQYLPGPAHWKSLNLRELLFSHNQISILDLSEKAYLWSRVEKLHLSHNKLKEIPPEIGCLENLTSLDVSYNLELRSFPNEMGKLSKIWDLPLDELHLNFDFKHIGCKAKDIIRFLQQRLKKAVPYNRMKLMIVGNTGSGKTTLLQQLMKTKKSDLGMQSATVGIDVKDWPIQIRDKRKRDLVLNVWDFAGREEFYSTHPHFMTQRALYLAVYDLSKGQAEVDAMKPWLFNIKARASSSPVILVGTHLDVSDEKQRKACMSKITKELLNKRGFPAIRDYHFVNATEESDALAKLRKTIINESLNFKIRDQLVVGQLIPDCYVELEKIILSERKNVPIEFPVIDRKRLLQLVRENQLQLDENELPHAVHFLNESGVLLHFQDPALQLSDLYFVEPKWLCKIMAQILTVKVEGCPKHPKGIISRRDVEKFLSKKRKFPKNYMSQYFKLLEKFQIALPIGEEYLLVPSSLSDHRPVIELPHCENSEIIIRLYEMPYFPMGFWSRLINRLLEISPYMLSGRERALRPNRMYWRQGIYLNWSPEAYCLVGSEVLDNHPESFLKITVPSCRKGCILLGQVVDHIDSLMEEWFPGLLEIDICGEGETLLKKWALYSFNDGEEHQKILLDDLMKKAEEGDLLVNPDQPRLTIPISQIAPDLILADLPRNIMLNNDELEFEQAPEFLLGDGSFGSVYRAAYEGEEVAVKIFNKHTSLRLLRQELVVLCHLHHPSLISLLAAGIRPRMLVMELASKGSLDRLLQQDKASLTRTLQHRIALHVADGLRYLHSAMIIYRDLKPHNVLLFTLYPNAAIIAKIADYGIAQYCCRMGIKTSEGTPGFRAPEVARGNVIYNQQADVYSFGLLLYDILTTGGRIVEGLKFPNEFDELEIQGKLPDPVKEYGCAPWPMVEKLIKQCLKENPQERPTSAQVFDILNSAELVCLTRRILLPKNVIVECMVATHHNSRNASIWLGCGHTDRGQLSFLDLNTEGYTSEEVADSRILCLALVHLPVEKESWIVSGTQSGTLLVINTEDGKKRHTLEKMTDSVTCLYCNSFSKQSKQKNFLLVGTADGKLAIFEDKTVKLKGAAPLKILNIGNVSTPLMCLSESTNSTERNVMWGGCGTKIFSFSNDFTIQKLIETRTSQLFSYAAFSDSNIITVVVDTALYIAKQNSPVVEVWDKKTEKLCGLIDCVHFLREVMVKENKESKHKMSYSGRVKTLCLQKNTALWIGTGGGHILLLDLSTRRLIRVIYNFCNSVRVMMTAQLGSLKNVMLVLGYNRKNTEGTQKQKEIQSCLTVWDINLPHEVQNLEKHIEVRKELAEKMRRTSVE
T1 sequence (P00519 whole entry): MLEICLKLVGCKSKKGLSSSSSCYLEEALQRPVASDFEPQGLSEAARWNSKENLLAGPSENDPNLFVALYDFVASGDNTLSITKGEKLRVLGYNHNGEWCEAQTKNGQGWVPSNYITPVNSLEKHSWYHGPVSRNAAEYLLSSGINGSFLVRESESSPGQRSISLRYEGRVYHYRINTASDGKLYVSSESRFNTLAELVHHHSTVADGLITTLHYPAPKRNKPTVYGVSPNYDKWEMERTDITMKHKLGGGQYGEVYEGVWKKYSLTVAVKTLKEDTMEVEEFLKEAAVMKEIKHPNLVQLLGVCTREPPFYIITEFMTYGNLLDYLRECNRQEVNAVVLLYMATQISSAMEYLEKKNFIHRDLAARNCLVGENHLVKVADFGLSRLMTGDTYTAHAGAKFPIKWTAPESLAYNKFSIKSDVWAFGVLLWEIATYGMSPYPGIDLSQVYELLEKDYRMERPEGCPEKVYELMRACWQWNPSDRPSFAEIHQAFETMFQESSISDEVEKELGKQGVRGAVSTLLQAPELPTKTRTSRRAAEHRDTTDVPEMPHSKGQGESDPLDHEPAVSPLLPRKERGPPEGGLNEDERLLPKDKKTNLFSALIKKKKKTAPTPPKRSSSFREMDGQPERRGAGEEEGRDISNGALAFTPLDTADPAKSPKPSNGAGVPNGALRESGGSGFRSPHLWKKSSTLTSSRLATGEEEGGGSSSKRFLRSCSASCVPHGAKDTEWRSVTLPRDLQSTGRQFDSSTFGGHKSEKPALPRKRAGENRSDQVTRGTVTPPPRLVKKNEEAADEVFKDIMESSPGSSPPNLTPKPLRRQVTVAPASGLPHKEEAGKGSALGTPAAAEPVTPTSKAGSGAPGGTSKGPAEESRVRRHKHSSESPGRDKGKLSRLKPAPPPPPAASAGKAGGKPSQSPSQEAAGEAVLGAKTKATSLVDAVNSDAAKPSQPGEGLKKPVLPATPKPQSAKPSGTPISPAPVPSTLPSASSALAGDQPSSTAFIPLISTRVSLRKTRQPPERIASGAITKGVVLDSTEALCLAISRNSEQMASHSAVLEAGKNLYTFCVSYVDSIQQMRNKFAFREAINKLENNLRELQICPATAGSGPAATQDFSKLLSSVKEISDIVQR
SRSF protein kinase 2 (Homo sapiens), sequence (P78362 whole entry, looked up): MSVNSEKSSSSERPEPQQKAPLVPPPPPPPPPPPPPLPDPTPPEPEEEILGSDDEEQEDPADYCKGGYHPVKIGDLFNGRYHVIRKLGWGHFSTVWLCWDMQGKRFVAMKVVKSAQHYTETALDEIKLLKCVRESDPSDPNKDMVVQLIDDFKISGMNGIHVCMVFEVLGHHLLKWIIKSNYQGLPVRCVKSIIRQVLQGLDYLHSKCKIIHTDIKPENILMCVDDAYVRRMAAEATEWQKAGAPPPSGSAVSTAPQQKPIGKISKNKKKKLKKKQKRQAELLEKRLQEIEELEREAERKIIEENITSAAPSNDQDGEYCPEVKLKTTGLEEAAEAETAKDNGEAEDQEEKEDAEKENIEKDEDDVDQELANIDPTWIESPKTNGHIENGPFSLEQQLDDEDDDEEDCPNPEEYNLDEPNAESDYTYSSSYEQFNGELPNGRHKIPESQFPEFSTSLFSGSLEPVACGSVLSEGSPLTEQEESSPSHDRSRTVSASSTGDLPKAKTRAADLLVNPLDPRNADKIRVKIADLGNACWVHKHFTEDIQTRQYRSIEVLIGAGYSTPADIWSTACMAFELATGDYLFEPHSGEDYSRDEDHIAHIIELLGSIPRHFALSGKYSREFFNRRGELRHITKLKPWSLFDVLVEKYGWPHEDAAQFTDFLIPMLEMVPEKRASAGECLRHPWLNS
Cyclin-dependent kinase 1, sequence (P06493 whole entry): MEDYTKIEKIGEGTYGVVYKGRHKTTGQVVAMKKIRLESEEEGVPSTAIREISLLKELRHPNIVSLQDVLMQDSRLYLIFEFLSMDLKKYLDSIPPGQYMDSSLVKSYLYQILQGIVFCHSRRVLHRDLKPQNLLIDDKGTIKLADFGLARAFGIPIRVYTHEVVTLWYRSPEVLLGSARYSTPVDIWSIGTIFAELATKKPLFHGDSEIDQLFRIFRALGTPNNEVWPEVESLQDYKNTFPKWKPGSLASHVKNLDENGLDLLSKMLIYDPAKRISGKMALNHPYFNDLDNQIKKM
Aurora kinase A, sequence (O14965 whole entry): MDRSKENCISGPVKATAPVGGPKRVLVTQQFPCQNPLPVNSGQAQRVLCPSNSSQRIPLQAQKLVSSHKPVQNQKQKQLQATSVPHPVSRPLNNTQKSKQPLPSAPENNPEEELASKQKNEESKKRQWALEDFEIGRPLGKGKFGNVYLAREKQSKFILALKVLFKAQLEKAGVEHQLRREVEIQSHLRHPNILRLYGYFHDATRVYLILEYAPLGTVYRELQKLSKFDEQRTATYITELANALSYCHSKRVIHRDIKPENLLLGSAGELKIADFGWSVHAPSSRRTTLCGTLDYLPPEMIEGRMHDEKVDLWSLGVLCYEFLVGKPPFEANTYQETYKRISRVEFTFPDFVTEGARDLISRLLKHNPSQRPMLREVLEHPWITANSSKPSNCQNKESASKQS

CN1CCN(Cc2ccc(-c3cnc4[nH]cc(-c5ccc6[nH]ccc6c5)c4c3)cc2)CC1
inhibition [1]: > 90%
inhibition [2]: inactive
inhibition [3]: > 90%
inhibition [4]: Active
Tmax [5]: 4 h
inhibition [6]: inactive
inhibition [7]: > 90%
inhibition [8]: > 90%
IC50 [9]: 85 nM
IC50 [10]: 333 nM
inhibition [11]: > 90%
inhibition [12]: > 90%
IC50 [13]: 1130 nM
IC50 [14]: 108 nM
IC50 [15]: > 30000 nM
IC50 [16]: > 30000 nM
inhibition [17]: inactive
inhibition [18]: 92%
IC50 [19]: 560 nM
inhibition [20]: > 90%
inhibition [21]: > 50%
inhibition [22]: inactive
inhibition [23]: > 90%
IC50 [24]: 460 nM
inhibition [25]: > 90%
IC50 [26]: 11 nM
IC50 [27]: 661 nM
IC50 [28]: 307 nM
inhibition [29]: 49%
